# Measurements reported in ChEMBL document CHEMBL1201862, “PubChem BioAssay data set” (2004).
# Activity calls are given as the source filed them.
# What was measured:
# Format in all cases: functional
# [1] = molecular target: T1, Replicative DNA helicase DnaB (Mycobacterium tuberculosis, UniProt P9WMR3); experiment: DnaB intein splicing inhibitors, dose response, biochemical, cell-free fluorescence (AID 449749)
# T1 sequence (P9WMR3 whole entry): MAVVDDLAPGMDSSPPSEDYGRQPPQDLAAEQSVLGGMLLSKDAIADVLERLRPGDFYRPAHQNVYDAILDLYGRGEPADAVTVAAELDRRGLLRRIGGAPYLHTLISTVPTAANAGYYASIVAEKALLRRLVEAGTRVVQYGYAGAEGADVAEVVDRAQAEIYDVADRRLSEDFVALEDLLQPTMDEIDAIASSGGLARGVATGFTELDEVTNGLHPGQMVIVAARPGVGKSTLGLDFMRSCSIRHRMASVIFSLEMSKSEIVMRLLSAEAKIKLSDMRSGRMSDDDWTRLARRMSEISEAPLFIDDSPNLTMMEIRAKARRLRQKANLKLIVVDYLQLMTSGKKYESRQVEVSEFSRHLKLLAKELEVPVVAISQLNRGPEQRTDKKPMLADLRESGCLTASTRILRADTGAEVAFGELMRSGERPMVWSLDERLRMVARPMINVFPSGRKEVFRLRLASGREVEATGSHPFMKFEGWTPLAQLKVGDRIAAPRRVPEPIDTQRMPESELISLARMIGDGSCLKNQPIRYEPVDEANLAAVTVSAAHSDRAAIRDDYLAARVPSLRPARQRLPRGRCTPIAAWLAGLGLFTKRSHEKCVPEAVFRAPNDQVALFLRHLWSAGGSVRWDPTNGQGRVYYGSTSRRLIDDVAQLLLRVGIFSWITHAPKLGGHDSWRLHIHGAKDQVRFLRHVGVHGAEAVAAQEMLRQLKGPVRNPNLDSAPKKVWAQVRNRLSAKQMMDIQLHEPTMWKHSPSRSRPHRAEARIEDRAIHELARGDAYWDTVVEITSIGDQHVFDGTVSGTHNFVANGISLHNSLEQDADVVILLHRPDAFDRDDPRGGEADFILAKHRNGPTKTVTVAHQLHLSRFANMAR
# [2] = molecular target: 3-phosphoinositide-dependent protein kinase 1 (Homo sapiens, UniProt O15530);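 also: value comes from the Navigating the Kinome panel, PDPK1 member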
# [3] = molecular target: Dual specificity protein kinase CLK4 (Homo sapiens, UniProt Q9HAZ1)
# [4] = molecular target: T2, Serine/threonine-protein kinase D3 (Homo sapiens, UniProt O94806);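 also: determined within a kinase panel screen, with PRKCN as the panel member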
# T2 sequence (O94806 whole entry): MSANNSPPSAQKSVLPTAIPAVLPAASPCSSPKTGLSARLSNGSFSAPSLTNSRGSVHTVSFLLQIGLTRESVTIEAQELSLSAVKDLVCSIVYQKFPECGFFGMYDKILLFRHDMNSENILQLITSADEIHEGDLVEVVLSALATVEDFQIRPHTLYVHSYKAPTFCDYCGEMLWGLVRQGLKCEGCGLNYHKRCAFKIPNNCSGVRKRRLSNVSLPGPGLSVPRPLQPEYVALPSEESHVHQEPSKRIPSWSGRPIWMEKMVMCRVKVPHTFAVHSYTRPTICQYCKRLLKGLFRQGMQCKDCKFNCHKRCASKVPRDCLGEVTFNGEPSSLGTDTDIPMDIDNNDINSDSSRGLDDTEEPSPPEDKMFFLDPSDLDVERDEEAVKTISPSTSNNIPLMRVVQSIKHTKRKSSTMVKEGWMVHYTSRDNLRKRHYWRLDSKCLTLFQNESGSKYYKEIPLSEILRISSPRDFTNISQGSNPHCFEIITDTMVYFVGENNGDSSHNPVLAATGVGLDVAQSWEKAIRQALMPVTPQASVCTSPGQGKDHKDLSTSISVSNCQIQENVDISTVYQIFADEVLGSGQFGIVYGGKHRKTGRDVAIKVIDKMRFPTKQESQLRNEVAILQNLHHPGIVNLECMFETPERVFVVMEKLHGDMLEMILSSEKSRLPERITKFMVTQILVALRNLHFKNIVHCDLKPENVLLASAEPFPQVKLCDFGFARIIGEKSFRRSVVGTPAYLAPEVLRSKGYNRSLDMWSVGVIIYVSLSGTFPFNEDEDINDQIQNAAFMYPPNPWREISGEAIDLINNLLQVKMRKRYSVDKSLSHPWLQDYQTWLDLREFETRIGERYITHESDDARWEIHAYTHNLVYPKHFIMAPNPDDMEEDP
# [5] = molecular target: MAP kinase-activated protein kinase 3 (Homo sapiens, UniProt Q16644);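 also: value comes from a kinome-wide profiling panel in which MAPKAPK3 is one of the panel members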
# [6] = molecular target: Casein kinase I isoform alpha (Homo sapiens, UniProt P48729)
# [7] = molecular target: Vascular endothelial growth factor receptor 2 (Homo sapiens, UniProt P35968)
# [8] = molecular target: MAP kinase-activated protein kinase 5 (Homo sapiens, UniProt Q8IW41);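 also: measured as one member of a kinome panel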
# [9] = molecular target: Serine/threonine-protein kinase PLK3 (Homo sapiens, UniProt Q9H4B4)
# [10] = molecular target: RAC-alpha serine/threonine-protein kinase (Homo sapiens, UniProt P31749);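 also: AKT1 affinity measured as one member of a kinome-wide kinase profiling panel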
# [11] = molecular target: Dual specificity tyrosine-phosphorylation-regulated kinase 1B (Homo sapiens, UniProt Q9Y463); experiment: Navigating the Kinome. Panel member name: DYRK1B
# [12] = molecular target: Serine/threonine-protein kinase pim-3 (Homo sapiens, UniProt Q86V86);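 also: value obtained as one member of a broad kinase panel profiling effort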
# [13] = molecular target: Testis-specific serine/threonine-protein kinase 1 (Homo sapiens, UniProt Q9BXA7)
# [14] = molecular target: T3, Serine/threonine-protein kinase Chk1 (Homo sapiens, UniProt O14757);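 also: measured as one member of a kinome-wide kinase profiling panel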
# T3 sequence (O14757 whole entry): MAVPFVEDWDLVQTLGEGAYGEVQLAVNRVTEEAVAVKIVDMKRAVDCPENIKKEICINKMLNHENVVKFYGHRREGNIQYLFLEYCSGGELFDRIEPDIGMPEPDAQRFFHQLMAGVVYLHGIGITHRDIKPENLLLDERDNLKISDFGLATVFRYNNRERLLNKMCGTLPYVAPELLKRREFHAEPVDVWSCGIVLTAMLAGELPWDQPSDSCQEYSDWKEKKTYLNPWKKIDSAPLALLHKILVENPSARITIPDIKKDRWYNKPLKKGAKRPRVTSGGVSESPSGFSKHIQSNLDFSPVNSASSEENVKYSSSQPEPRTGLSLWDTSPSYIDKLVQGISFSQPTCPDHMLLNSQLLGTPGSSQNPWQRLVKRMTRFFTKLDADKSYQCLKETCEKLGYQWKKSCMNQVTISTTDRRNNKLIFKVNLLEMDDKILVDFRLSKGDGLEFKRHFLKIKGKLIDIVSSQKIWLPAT
# [15] = molecular target: Serine/threonine-protein kinase PLK1 (Homo sapiens, UniProt P53350);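 also: PLK1 measured as one member of a kinome-wide profiling panel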
# Serine/threonine-protein kinase PLK1, sequence (P53350 whole entry): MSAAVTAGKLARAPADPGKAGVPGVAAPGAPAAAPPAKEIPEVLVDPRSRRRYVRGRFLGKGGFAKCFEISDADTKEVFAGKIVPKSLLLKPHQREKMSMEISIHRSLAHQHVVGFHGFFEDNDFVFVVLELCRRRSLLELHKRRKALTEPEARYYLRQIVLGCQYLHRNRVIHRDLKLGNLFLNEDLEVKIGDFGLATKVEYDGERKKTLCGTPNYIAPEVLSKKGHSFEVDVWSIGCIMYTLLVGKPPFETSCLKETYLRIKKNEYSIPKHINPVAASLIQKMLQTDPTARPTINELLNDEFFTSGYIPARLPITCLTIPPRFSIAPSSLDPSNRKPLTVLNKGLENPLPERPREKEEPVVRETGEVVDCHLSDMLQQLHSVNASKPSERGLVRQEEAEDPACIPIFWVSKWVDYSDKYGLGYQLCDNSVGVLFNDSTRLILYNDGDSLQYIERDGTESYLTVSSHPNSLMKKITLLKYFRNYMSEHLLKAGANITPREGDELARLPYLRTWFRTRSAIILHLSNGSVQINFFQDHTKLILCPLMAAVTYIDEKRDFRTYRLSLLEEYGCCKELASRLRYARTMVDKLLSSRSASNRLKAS
# Dual specificity tyrosine-phosphorylation-regulated kinase 1B, sequence (Q9Y463 whole entry): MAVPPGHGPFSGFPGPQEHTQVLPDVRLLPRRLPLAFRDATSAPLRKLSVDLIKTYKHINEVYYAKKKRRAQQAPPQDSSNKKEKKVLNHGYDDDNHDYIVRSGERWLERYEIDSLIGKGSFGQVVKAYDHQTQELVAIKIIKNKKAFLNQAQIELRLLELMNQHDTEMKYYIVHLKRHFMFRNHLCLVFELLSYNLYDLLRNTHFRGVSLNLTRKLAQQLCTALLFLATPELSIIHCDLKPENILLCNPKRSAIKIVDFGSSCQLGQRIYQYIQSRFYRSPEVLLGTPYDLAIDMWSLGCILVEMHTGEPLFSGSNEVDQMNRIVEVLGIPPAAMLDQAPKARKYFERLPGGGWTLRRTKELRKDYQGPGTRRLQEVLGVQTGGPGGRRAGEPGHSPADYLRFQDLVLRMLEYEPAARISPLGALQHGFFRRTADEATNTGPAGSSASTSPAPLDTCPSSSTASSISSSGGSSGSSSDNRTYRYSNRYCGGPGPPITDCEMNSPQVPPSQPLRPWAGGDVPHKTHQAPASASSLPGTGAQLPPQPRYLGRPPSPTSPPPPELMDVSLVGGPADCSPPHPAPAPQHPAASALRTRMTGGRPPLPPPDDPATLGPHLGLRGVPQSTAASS
# Vascular endothelial growth factor receptor 2, sequence (P35968 whole entry): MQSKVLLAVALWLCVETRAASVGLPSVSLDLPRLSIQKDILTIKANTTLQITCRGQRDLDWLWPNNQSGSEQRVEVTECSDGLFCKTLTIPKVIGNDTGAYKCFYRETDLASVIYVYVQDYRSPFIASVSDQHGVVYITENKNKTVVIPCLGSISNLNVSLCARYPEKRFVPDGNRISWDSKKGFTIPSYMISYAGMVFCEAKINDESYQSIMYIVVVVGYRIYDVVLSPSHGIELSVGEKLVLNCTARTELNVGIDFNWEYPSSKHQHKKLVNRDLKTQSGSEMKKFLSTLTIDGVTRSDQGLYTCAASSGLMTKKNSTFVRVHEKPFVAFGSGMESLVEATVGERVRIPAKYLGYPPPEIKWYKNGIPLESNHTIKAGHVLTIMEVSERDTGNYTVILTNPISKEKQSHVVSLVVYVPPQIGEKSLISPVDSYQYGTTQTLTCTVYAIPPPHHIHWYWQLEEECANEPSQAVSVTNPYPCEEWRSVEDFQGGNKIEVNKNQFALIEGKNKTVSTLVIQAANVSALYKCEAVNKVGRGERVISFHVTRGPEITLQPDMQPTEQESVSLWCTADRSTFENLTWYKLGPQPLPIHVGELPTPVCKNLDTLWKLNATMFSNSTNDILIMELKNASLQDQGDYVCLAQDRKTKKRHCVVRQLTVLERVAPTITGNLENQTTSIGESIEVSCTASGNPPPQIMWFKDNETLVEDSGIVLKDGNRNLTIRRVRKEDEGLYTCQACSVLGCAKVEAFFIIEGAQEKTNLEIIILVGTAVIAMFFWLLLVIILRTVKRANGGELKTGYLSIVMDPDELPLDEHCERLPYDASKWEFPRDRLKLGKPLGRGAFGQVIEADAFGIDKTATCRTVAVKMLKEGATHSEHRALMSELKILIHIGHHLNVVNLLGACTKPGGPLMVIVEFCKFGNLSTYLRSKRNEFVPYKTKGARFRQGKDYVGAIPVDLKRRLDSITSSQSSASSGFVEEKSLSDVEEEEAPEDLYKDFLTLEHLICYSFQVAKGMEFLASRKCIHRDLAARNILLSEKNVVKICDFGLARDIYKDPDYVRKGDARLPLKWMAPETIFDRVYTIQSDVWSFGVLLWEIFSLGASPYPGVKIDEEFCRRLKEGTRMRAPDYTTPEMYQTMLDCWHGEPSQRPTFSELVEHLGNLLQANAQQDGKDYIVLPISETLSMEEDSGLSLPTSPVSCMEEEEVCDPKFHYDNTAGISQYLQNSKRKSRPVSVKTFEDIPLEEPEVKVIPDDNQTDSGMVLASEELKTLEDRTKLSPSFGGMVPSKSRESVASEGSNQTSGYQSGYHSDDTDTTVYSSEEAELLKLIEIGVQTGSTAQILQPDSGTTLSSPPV
# RAC-alpha serine/threonine-protein kinase, sequence (P31749 whole entry): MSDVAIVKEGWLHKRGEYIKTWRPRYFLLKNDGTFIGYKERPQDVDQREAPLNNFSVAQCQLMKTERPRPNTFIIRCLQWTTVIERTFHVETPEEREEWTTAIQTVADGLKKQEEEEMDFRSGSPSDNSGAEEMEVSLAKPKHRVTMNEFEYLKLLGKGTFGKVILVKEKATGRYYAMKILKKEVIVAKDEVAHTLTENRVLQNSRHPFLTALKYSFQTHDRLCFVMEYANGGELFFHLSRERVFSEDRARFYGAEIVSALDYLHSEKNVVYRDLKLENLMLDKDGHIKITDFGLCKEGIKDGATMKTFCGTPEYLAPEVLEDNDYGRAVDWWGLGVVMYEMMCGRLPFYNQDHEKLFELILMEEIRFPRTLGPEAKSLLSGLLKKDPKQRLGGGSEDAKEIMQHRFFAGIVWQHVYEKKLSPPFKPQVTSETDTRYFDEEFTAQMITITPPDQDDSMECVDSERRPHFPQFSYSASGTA
# Serine/threonine-protein kinase PLK3, sequence (Q9H4B4 whole entry): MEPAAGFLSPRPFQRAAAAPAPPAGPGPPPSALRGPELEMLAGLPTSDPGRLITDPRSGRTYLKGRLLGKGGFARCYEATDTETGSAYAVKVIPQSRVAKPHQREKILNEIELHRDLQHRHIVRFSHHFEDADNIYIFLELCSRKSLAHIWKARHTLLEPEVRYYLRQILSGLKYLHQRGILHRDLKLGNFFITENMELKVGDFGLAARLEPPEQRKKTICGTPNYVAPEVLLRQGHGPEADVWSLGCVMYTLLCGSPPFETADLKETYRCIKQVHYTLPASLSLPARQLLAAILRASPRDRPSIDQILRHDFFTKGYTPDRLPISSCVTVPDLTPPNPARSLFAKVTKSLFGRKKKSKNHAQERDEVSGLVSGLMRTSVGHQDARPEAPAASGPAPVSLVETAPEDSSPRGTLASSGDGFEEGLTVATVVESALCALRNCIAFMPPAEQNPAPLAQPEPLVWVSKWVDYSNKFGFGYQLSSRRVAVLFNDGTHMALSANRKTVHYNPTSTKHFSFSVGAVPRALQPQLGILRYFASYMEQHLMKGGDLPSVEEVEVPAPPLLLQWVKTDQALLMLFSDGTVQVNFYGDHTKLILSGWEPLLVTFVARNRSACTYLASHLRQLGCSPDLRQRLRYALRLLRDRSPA
# Casein kinase I isoform alpha, sequence (P48729 whole entry, canonical isoform): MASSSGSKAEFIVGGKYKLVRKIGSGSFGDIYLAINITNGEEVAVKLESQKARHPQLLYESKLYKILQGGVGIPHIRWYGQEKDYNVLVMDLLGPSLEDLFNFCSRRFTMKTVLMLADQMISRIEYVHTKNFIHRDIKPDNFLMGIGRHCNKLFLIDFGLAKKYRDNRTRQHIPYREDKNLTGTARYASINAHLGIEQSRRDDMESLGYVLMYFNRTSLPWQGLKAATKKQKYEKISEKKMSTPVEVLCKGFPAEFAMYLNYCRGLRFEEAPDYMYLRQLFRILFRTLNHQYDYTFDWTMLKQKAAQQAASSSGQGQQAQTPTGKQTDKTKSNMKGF
# Dual specificity protein kinase CLK4, sequence (Q9HAZ1 whole entry): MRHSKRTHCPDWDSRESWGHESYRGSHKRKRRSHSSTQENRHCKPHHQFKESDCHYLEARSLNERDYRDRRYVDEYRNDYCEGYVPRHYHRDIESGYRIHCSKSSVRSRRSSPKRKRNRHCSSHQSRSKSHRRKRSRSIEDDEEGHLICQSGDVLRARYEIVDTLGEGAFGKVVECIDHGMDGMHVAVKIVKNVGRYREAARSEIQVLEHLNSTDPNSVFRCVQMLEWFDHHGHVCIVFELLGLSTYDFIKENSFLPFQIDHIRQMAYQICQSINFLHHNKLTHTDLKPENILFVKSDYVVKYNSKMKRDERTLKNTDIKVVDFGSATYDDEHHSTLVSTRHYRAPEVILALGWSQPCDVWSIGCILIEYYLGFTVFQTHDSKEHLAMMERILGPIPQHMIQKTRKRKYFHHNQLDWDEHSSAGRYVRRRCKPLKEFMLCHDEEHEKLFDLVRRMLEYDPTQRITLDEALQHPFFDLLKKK
Structure (SMILES),AC50 [1],Ki [2],Ki [3],Ki [4],Ki [5],Ki [6],Ki [7],Ki [8],Ki [9],Ki [10],Ki [11],Ki [12],Ki [13],Ki [14],Ki [15]
Cc1c(/N=C2\C=CC(=O)c3ccccc32)c(=O)n(-c2ccccc2)n1C,1.63 µM (active),,,,,,,,,,,,,,
COC(=O)CCS(=O)(=O)c1nc(-c2ccccc2)cc(C(F)(F)F)n1,3.44 µM (active),,,,,,,,,,,,,,
O=C(O)c1ccc2c3c(ncnc13)-c1ccccc1C2=O,4.07 µM (active),,,,,,,,,,,,,,
O=C(O)c1ccc(NC2=C(Cl)C(=O)c3ccccc3C2=O)cc1,3.36 µM (active),,,,,,,,,,,,,,
COc1cc2c(cc1F)C(c1ccccc1Cl)=Nc1c(n[nH]c1C)N2 [RG-1530],,0.0501 µM (active),1 µM (active),> 3.98 µM (inactive),> 10 µM (inactive),> 5.01 µM (inactive),0.0126 µM (active),> 1.58 µM (inactive),6.31 µM (active),> 7.94 µM (inactive),0.0316 µM (active),> 7.94 µM (inactive),> 1.58 µM (inactive),0.501 µM (active),
Cc1ccc2nccc(NC(=O)Nc3cccc(C(F)(F)F)n3)c2c1,,> 3.98 µM (inactive),0.1 µM (active),1.26 µM (active),> 10 µM (inactive),> 5.01 µM (inactive),> 2 µM (inactive),> 1.58 µM (inactive),> 7.94 µM (inactive),> 7.94 µM (inactive),> 2.51 µM (inactive),0.316 µM (active),> 1.58 µM (inactive),> 7.94 µM (inactive),> 7.94 µM (inactive)
Cc1nn(C)c2sc3c(=O)[nH]cnc3c12,,,3.16 µM (active),39.8 µM (active),,50.1 µM (active),> 79.4 µM (inactive),,> 79.4 µM (inactive),> 79.4 µM (inactive),12.6 µM (active),2.51 µM (active),,> 79.4 µM (inactive),> 79.4 µM (inactive)
